Data taken from ChEMBL document CHEMBL5375947, “Discovery of Efficient Hypoxia-Targeted NO Donor Compounds to Alleviate Hypoxia Cardiac Disease” (J Med Chem, 2023).
Active and inactive are the calls of the source. The rule behind the calls is not given here.

Experiments:
Mus musculus [1] = test: Vasodilation activity against hypoxia-induced myocardial injury ip dosed C57 mouse model assessed as vascular obstruction areas low dose administered twice a day for 3 days; type: functional, organism-based; details: time 3.0 day
H9c2 [2] = test: Induction of NO release in rat H9c2 cells at 10 uM measured at 4 hrs under normoxia condition by griess reagent based assay; type: functional
H9c2 [3] = test: Induction of NO release in rat H9c2 cells at 10 uM under hypoxia condition by griess reagent based assay; type: functional
H9c2 [4] = test: Induction of NO release in rat H9c2 cells at 5 to 15 uM under hypoxia condition by griess reagent based assay; type: functional, cell-based; details: dose 5-15 µM
[5] = Toxicity in C57 mouse assessed as ratio of heart weight to body weight at 4 to 12 mg/kg IG administered twice a day for 3 days; type: organism-based; details: in vivo, po, 72 h, dose 4-12 mg/kg, time 3 day
[6] = Toxicity in C57 mouse assessed as reduction in heart weight at low dose administered twice a day for 3 days (reference value: 0.56g); details: in vivo, 72 h, time 3 day
[7] = Toxicity in C57 mouse assessed as increase in body weight at 4 mg/kg, ip administered twice a day for 3 days; type: organism-based; details: in vivo, 72 h, time 3 day
H9c2 [8] = test: Upregulation of TSC2-p expression in rat H9c2 cells at 5 to 10 uM by Western blot analysis; type: functional, cell-based; details: dose 5-10 µM
H9c2 [9] = test: Effect on TSC2-p expression in rat H9c2 cells by Western blot analysis; type: functional, cell-based; details: dose 0.01-1 µM
H9c2 [10] = test: Induction of NO release in rat H9c2 cells at 10 uM under hypoxia condition by DAF-FM fluorescence probe based spectroscopic assay; type: functional, cell-based
Mus musculus [11] = test: Protection against hypoxia-induced myocardial injury ip dosed C57 mouse model assessed as downregulation of mTORC1 expression in heart at low dose administered twice a day for 3 days by immunohistochemistry analysis; type: functional, organism-based; details: time 3.0 day
Mus musculus [12] = test: Protection against hypoxia-induced myocardial injury ip dosed C57 mouse model assessed as collagen fiber proliferation at low dose administered twice a day for 3 days by masson staining based analysis; type: functional, organism-based; details: time 3.0 day
[13] = Toxicity in C57 mouse assessed as increase in body weight at 4 to 12 mg/kg IG administered twice a day for 3 days; type: organism-based; details: in vivo, po, 72 h, dose 4-12 mg/kg, time 3 day
H9c2 [14] = test: Recovery of myocardial cell viability in rat H9c2 cells at 0.01 to 10 uM under hypoxia condition by CCK-8 assay; type: functional, cell-based; details: dose 0.01-10 µM
H9c2 [15] = test: Effect on ACE expression in rat H9c2 cells at 1 uM by Western blot analysis; type: functional, cell-based
Mus musculus [16] = test: Protection against hypoxia-induced myocardial injury C57 mouse model assessed as downregulation of ACE expression in heart at 12 mg/kg, IG administered twice a day for 3 days by immunohistochemistry analysis; type: functional, organism-based; details: time 3.0 day
H9c2 [17] = test: Recovery of myocardial cell viability in rat H9c2 cells assessed as increase in ATP level at 10 micromol/L measured per mg of protein under hypoxia condition by fluorescence based assay; type: functional; details: dose 10 µmol/L
H9c2 [18] = test: Downregulation of ACE expression in rat H9c2 cells at 5 to 10 uM by Western blot analysis; type: functional, cell-based; details: dose 5-10 µM
Mus musculus [19] = test: Vasodilation activity against hypoxia-induced myocardial injury ip dosed C57 mouse model assessed as vascular obstruction areas high dose administered twice a day for 3 days; type: functional, organism-based; details: time 3.0 day
H9c2 [20] = test: Effect on TSP1 expression in rat H9c2 cells at 10 uM by Western blot analysis; type: functional, cell-based
H9c2 [21] = test: Cytotoxicity against rat H9c2 cells assessed as reduction in cell viability at 0.01 to 10 uM under normoxia condition by CCK-8 assay; type: toxicity, cell-based; details: h9c2, 10 µM, dose 0.01-10 µM
H9c2 [22] = test: Anti-apoptotic activity in rat H9c2 cells assessed as late apoptotic cells by measuring red fluorescence intensity by annexin V-FITC/PI staining based confocal microscopic analysis; type: functional, cell-based
Mus musculus [23] = test: Protection against hypoxia-induced myocardial injury ip dosed C57 mouse model assessed as downregulation of mTORC1 expression in heart at high dose administered twice a day for 3 days by immunohistochemistry analysis; type: functional, organism-based; details: time 3.0 day
Mus musculus [24] = test: Protection against hypoxia-induced myocardial injury IG dosed C57 mouse model assessed as collagen fiber proliferation at low dose administered twice a day for 3 days by masson staining based analysis; type: functional, organism-based; details: time 3.0 day
Mus musculus [25] = test: Protection against hypoxia-induced myocardial injury C57 mouse model assessed as reduction in collagen fiber proliferation at 12 mg/kg, IG administered twice a day for 3 days by masson staining based analysis; type: functional, organism-based; details: time 3.0 day
Mus musculus [26] = test: Induction of NO release in C57 mouse at 4 to 12 mg/kg, ip administered twice a day for 3 days; type: functional, organism-based; details: dose 4-12 mg/kg, time 3.0 day
Mus musculus [27] = test: Protection against hypoxia-induced myocardial injury ip dosed C57 mouse model assessed as cellular arrangement disorder at high dose administered twice a day for 2 days by H and E staining based analysis; type: functional, organism-based; details: time 2.0 day
[28] = Toxicity in C57 mouse assessed as reduction in heart weight at high dose administered twice a day for 3 days (reference value: 0.56g); details: in vivo, 72 h, time 3 day
H9c2 [29] = test: Induction of NO release in rat H9c2 cells at 10 uM under normoxia condition by griess reagent based assay; type: functional
Mus musculus [30] = test: Protection against hypoxia-induced myocardial injury ip dosed C57 mouse model assessed as downregulation of ACE expression in heart at high dose administered twice a day for 3 days by immunohistochemistry analysis; type: functional, organism-based; details: time 3.0 day
[31] = Toxicity in C57 mouse assessed as increase in cardiac swelling at 12 mg/kg, ip administered twice a day for 3 days; type: organism-based; details: in vivo, 72 h, time 3 day
Mus musculus [32] = test: Protection against hypoxia-induced myocardial injury ip dosed C57 mouse model assessed as cellular arrangement disorder at low dose administered twice a day for 2 days by H and E staining based analysis; type: functional, organism-based; details: time 2.0 day
H9c2 [33] = test: Induction of NO release in rat H9c2 cells at 5 to 10 uM under hypoxia condition by griess reagent based assay; type: functional, cell-based; details: dose 5-10 µM
H9c2 [34] = test: Induction of NO release in rat H9c2 cells at 10 uM measured at 30 mins under hypoxia condition by griess reagent based assay; type: functional; details: 0.5 h
H9c2 [35] = test: Induction of NO release in rat H9c2 cells at 10 uM measured upto 12 hrs under hypoxia condition by griess reagent based assay; type: functional, cell-based
Mus musculus [36] = test: Protection against hypoxia-induced myocardial injury ip dosed C57 mouse model assessed as downregulation of ACE expression in heart at low dose administered twice a day for 3 days by immunohistochemistry analysis; type: functional, organism-based; details: time 3.0 day
H9c2 [37] = test: Induction of NO release in rat H9c2 cells at 10 uM measured at 4 hrs under hypoxia condition by griess reagent based assay; type: functional, cell-based
H9c2 [38] = test: Downregulation of ACE expression in rat H9c2 cells at 5 uM by Western blot analysis; type: functional, cell-based
H9c2 [39] = test: Downregulation of mTORC1 expression in rat H9c2 cells at 5 to 10 uM by Western blot analysis; type: functional, cell-based; details: dose 5-10 µM
[40] = Toxicity in C57 mouse assessed as increase in cardiac swelling at 4 mg/kg, ip administered twice a day for 3 days; type: organism-based; details: in vivo, 72 h, time 3 day
H9c2 [41] = test: Downregulation of mTORC1 expression in rat H9c2 cells at 5 uM by Western blot analysis; type: functional, cell-based
H9c2 [42] = test: Recovery of myocardial cell viability in rat H9c2 cells at 0.01 to 1 uM under hypoxia condition by CCK-8 assay; type: functional, cell-based; details: dose 0.01-1 µM
H9c2 [43] = test: Recovery of myocardial cell viability in rat H9c2 cells under hypoxia condition by CCK-8 assay; type: functional, cell-based; details: dose 10.0 µM
[44] = Stability of compound in PBS at pH 7.4 by HPLC analysis; type: physicochemical; details: buffer
Mus musculus [45] = test: Vasodilation activity against hypoxia-induced myocardial injury C57 mouse model assessed as vascular obstruction areas at 12 mg/kg, ip administered twice a day for 3 days; type: functional, organism-based; details: time 3.0 day
Mus musculus [46] = test: Protection against hypoxia-induced myocardial injury C57 mouse model assessed as cellular arrangement disorder at 12 mg/kg, ip administered twice a day for 2 days by H and E staining based analysis; type: functional, organism-based; details: time 2.0 day
H9c2 [47] = test: Induction of NO release in rat H9c2 cells under hypoxia condition by griess reagent based assay; type: functional, cell-based; details: dose <= 15.0 µM
[48] = Toxicity in C57 mouse assessed as reduction in heart weight at 12 mg/kg, ip administered twice a day for 3 days (reference value: 0.56g); type: organism-based; details: in vivo, 72 h, time 3 day
Mus musculus [49] = test: Induction of NO release in C57 mouse at 4 mg/kg, ip administered twice a day for 3 days; type: functional; details: time 3 day
[50] = Toxicity in C57 mouse assessed as ratio of heart weight to body weight at 4 mg/kg IG administered twice a day for 3 days; type: organism-based; details: in vivo, po, 72 h, time 3 day

Cc1cc([N+](=O)[O-])ccc1COC(=O)Oc1ccc(N(C)N=O)cc1
Activity (Mus musculus [1]): Active | Activity (H9c2 [2]): 0% | Activity (H9c2 [3]): 43.21% | Activity (H9c2 [4]): Active | Ratio [5]: 0.56 | Activity [6]: 0.52 g | Activity [7]: Non-Toxic | Activity (H9c2 [8]): Active | Activity (H9c2 [9]): Dose-Dependent Effect | Activity (H9c2 [10]): Active | Activity (Mus musculus [11]): Active | Activity (Mus musculus [12]): Active | Activity [13]: Non-Toxic | Activity (H9c2 [14]): Active | Activity (H9c2 [15]): Active | Activity (Mus musculus [16]): Active | Activity (H9c2 [17]): 44 nmol | Activity (H9c2 [18]): Active | Activity (Mus musculus [19]): Active | Activity (H9c2 [20]): Active | Activity (H9c2 [21]): Non-Toxic | Activity (H9c2 [22]): Active | Activity (Mus musculus [23]): Active | Activity (Mus musculus [24]): Active | Activity (Mus musculus [25]): Active | Activity (Mus musculus [26]): Active | Activity (Mus musculus [27]): Active | Activity [28]: 0.48 g | Activity (H9c2 [29]): <2% | Activity (Mus musculus [30]): Active | Activity [31]: Toxic | Activity (Mus musculus [32]): Active | Activity (H9c2 [33]): Active | Activity (H9c2 [34]): 28% | Activity (H9c2 [35]): Active | Activity (Mus musculus [36]): Active | Activity (H9c2 [37]): Active

CN(N=O)c1ccc(OC(=O)OCc2ccc([N+](=O)[O-])cc2)cc1
Activity (Mus musculus [1]): Active | Activity (H9c2 [3]): 24.38% | Activity [6]: 0.57 g | Activity (H9c2 [38]): inactive | Activity [7]: Non-Toxic | Activity (H9c2 [8]): Active | Activity (H9c2 [10]): Active | Activity (H9c2 [39]): Active | Activity (Mus musculus [12]): inactive | Activity [40]: Non-Toxic | Activity (H9c2 [14]): Active | Activity (H9c2 [41]): inactive | Activity (H9c2 [42]): Active | Activity (H9c2 [17]): 37.5 nmol | Activity (H9c2 [18]): Active | Activity (Mus musculus [19]): Active | Activity (H9c2 [21]): Non-Toxic | Activity (H9c2 [22]): Active | Activity (Mus musculus [26]): Active | Activity (H9c2 [43]): Dose-Dependent Effect | Activity [28]: 0.48 g | Activity (H9c2 [29]): <2% | Activity [31]: Toxic | Activity (Mus musculus [32]): Active | Stability [44]: 0.41% | Activity (H9c2 [33]): Active

CN(N=O)c1ccc(OC(=O)OCc2ccc([N+](=O)[O-])cc2Cl)cc1
Activity (H9c2 [3]): >20% | Activity (H9c2 [29]): <2%

O=[N+]([O-])O[C@H]1CO[C@H]2[C@@H]1OC[C@H]2O[N+](=O)[O-] [ISOSORBIDE DINITRATE]
Activity (H9c2 [3]): 27.41% | Activity [7]: Non-Toxic | Activity (Mus musculus [45]): inactive | Activity (H9c2 [14]): Active | Activity (H9c2 [17]): 28.7 nmol | Activity (H9c2 [21]): Non-Toxic | Activity (H9c2 [22]): Active | Activity (Mus musculus [46]): Active | Activity (H9c2 [47]): Dose-Dependent Effect | Activity [48]: 0.51 g | Activity (H9c2 [29]): 36.89% | Activity (Mus musculus [49]): 54% | Ratio [50]: 0.59 | Activity (H9c2 [34]): ~30% | Activity (H9c2 [35]): Active

CN(N=O)c1ccc(OC(=O)OCc2ccc(Cl)cc2[N+](=O)[O-])cc1
Activity (H9c2 [29]): <2%

CN(N=O)c1ccc(OC(=O)OCc2cc(Cl)ccc2[N+](=O)[O-])cc1
Activity (H9c2 [29]): <2%

CN(N=O)c1ccc(OC(=O)OCc2ccc(Br)cc2[N+](=O)[O-])cc1
Activity (H9c2 [29]): <2%

Cc1ccc([N+](=O)[O-])c(COC(=O)Oc2ccc(N(C)N=O)cc2)c1
Activity (H9c2 [29]): <2%

Cc1ccc(COC(=O)Oc2ccc(N(C)N=O)cc2)c([N+](=O)[O-])c1
Activity (H9c2 [29]): <2%

CN(N=O)c1ccc(OC(=O)OCc2ccccc2[N+](=O)[O-])cc1
Activity (H9c2 [3]): >20% | Activity (H9c2 [29]): <2%
